From paper PMC10708475, “HPLC-DAD-MS Characterization, Antioxidant Activity, α-amylase Inhibition, Molecular Docking, and ADMET of Flavonoids from Fenugreek Seeds” (Molecules, 2023)

How the values were obtained:
[1] = Ferric-reducing antioxidant power (FRAP) assay; conditions: concentration indicating 0.50 absorbance, 700 nm; maximum tested 200 µg/mL
Experimental: The ferric-reducing antioxidant power (FRAP) assay was carried out according to [119]. The reaction mixture contained 10 μL of the extracts, 40 µL phosphate buffer (pH 6.6), and 50 μL potassium ferricyanide K3[Fe (CN)6] (1%), was incubated at 50 °C for 20 min, then 50 µL of trichloroacetic acid (TCA) (10%) and 40 µL of distilled water and 10 µL of ferric chloride FeCl3 (0.1%) were added. Then, the absorbance was measured at 700 nm using a microplate reader of type PerkinElmer (Enspire) against a blank. Tannic acid, α-tocopherol, and ascorbic acid were used as references.
The results of the tests carried out are expressed as an average ± SD of analyses in three tests. […] The one-way analysis of variance ANOVA was used to detect significant differences (p < 0.05).

[2] = DPPH radical scavenging assay; conditions: 30 min, 517 nm
Experimental: The ability of radical scavenging was determined according to [118], using the radical DPPH• (2,2-diphenyl-1-picrylhydrazyl). 160 µL of DPPH solution (0.15 mM) was added to 40 µL of the diluted extracts in methanol and incubated in the dark. After 30 min of incubation, the absorbances were measured at 517 nm by a microplate reader of type PerkinElmer (Enspire) against a blank. BHA, BHT, and α-tocopherol were used as reference antioxidants. DPPH inhibition percentage was calculated using the following equation:(3) Inhibition(%)=A0−As/A0×100 where A0 is the absorbance of the control (without the sample) and As is the absorbance of the tested samples. The antioxidant activity of the extracts and standards was expressed as IC50 (the concentration of the tested samples that inhibits 50% of DPPH radicals).
(§1) The results of the tests carried out are expressed as an average ± SD of analyses in three tests. The values of IC50 (50% inhibition concentration) and A0.5 (the concentration indicating 0.50 absorbance) are calculated using the linear regression method from the two curves: [% inhibition = f (concentration)] for IC50 and [Absorbance = f (concentration)] for A0.5. All the antioxidant and enzymatic tests were carried out at more than four concentration values. The one-way analysis of variance ANOVA was used to detect significant differences (p < 0.05).

[3] = ABTS+ scavenging activity; conditions: 10 min, 734 nm
Experimental: The ABTS•+ assay (2, 2′-azino-bis (3-ethylbenzthiazoline-6-sulfonic acid)) was carried out according to the method with some modifications. The ABTS+ reagent was prepared as follows: 19.2 mg of ABTS (7 mM) in 5 mL distilled water was mixed with 3.3 mg of Potassium persulfate K2S2O8 (2.45 mM) in 5 mL distilled water, and the mixture was incubated for 16 h in the dark before use. We have added 160 µL of ABTS+ reagent to 40 μL of extract solutions. After 10 min of incubation, the absorbance was read at 734 nm using a microplate reader of type PerkinElmer (Enspire). BHA and BHT were used as references. The total antioxidant activity of the extracts was calculated as follows:(4) ABTS^+scavenging effect (%)=AControl−ASample/AControl×100
as §1

Molecule: Tannic acid
- FRAP A0.5 [1]: 5.39 ± 0.91 µg/mL

Molecule: O=C1O[C@H]([C@@H](O)CO)C(O)=C1O [Ascorbic acid]
- FRAP A0.5 [1]: 6.77 ± 1.15 µg/mL

Molecule: COc1ccc(O)c(C(C)(C)C)c1 [BHA, Butylated hydroxyanisole]
- DPPH Inhibition IC50 [2]: 6.14 ± 0.41 µg/mL
- ABTS Inhibition IC50 [3]: 1.81 ± 0.10 µg/mL

Molecule: Cc1cc(C(C)(C)C)c(O)c(C(C)(C)C)c1 [BHT, hydroxytoluene]
- DPPH Inhibition IC50 [2]: 12.99 ± 0.41 µg/mL
- ABTS Inhibition IC50 [3]: 1.29 ± 0.30 µg/mL
